Measured values as given in patent publication US20220364990A1, “ANALYSIS OF OSCILLATORY FLUORESCENCE FROM BIOLOGICAL CELLS” (MOLECULAR DEVICES, LLC, priority 2019, published 2022).

Experiments:
[1] = system: Human iPSC-derived neural 3D co-cultures (microBrain 3D spheroids); experiment: Calcium oscillation assay in iPSC-derived neural 3D spheroids (microBrain 3D, FLIPR Calcium 6 Assay Kit, Peak Pro 2 analysis); assay type: cell-based; details: neural spheroid; for frequency of primary peaks relative to control: control DMSO; for peaks detected in calcium oscillation trace (primary / secondary peaks): recorded ten minutes after 30 minutes treatment
Description: Human iPSC-derived neural 3D co-cultures (StemoniX® microBrain® 3D platform) have been developed as a high-throughput screening platform that more closely resembles the constitution of native human cortical brain tissue. Neural spheroid 3D co-cultures are a physiologically relevant co-culture of iPSC-derived, functionally-active cortical glutamatergic and GABAergic neurons co-differentiated and matured with astrocytes from the same donor. 3D neural spheroids contain a neural network enriched in synapses, creating a highly functional neuronal circuitry and display spontaneous synchronized, readily detectable calcium oscillations.
The neuronal cells in the microBrain® 3D spheroids generate spontaneous synchronized calcium oscillations. Fast kinetic fluorescence imaging by the FLIPR® Penta® system was employed to measure the patterns and frequencies of Ca^2+ oscillations of neuro-spheroids, as monitored by changes in intracellular Ca^2+ levels with the FLIPR® Calcium 6 Assay Kit. A set of known neuromodulators was tested, including agonists and antagonists of NMDA, GABA and AMPA receptors; kainic acid; and analgesic and anti-epileptic drugs. The fluorescence from each well of an entire 384-well plate was recorded simultaneously at a frequency of 2 Hz (0.5 second sampling interval) by high-speed imaging using the FLIPR® Penta® system.
Advanced analysis methods implemented in the ScreenWorks® Peak Pro™ 2 software module provide multi-parametric characterization of Ca^2+ flux oscillation patterns. This phenotypic assay creates readouts such as oscillation frequency, amplitude, peak width, peak rise and decay times, and peak amplitude/spacing irregularity. The effects of modulators of neuronal activity were evaluated by measuring changes in several measurements.
A set of over twenty compounds, including a number of known modulators of neuronal activity, was assayed at different time points and concentrations, and the EC50 values were calculated for compound effects. The time points included 0, 15, 30, 60, 90, and 120 minutes, and 24 hours.

[2] = system: human iPSC-derived cardiomyocytes; experiment: Calcium oscillation assay in iPSC-derived cardiomyocytes (FLIPR Penta, EarlyTox Cardiotoxicity Kit, Peak Pro 2 analysis); assay type: cell-based; details: for peaks detected in calcium oscillation trace (primary / secondary peaks): recorded two minutes after thirty minutes treatment; for spacing of primary peaks / primary peak prolongation: after thirty minutes treatment
Method: Development of biologically relevant and predictive cell-based assays for compound screening and toxicity assessment is a major challenge in drug discovery. The focus of this study was to establish high-throughput-compatible cardiotoxicity assays using human-induced pluripotent stem cell (iPSC)-derived cardiomyocytes. To assess the utility of human iPSC-derived cardiomyocytes as an in vitro pro-arrhythmia model, the concentration dependence and responses were evaluated for 28 drugs linked to low, intermediate, and high torsades de pointes (TdP) risk categories. […] This assay allows for the characterization of parameters such as beating frequency, amplitude, peak width, and rise and decay times. […] The iPSC-derived cardiomyocytes generate spontaneous synchronized calcium oscillations. High speed fluorescence imaging with the FLIPR® Penta® System was used to measure the patterns and frequencies of the Ca^2+ oscillations in cardiomyocytes as monitored by changes in intracellular Ca^2+ levels with the EarlyToxTM Cardiotoxicity Kit. A set of 28 known cardiotoxic compounds, plus several benchmark compounds and negative controls, were tested in the assay. iPSC-derived Cardiomyocytes: Cryopreserved human iPSC-derived cells from Cellular Dynamics International (CDI) iCell® Cardiomyocytes2 were used for experiments. Cells were thawed and plated at 20,000/well (96-well format) or 10,000/well into 384-well format plates (Corning) and incubated for 7 days in maintenance media. […] In addition, assay-ready 384-Well plates with cardiomyocytes1 were obtained from […], Inc. Plates were shipped pre-plated and allowed to recover after arrival for 2 days. […] The FLIPR® Penta® System equipped with a new high speed camera allows better resolution of calcium oscillation patterns in cardiomyocytes. The ScreenWorks® Peak ProTM 2 software allows complex event analysis and detailed characterization of patterns using more than 20 available pattern descriptors. The assay can be used for testing developing drugs and screening chemicals for potential cardiotoxic hazards.

[3] = 10 μM, after 30 minutes treatment
[4] = 0.3 μM, after 30 minutes treatment

Nc1ccncc1 [4-aminopyridine]
frequency of primary peaks relative to control ([1]; 30 μM, after 30 minutes treatment): increased relative to control | peaks detected in calcium oscillation trace (primary / secondary peaks) ([1]; 30 μM): Primary peaks 118 and secondary peaks 150 are detected

NCCCC(=O)O [GABA]
frequency of primary peaks relative to control [1, 3]: significantly lower frequency than control | peaks detected in calcium oscillation trace (primary / secondary peaks) ([1]; 10 μM): Only primary peaks 118 are detected

COc1ccc(CCN2CCC(Nc3nc4ccccc4n3Cc3ccc(F)cc3)CC2)cc1 [astemizole]
peaks detected in calcium oscillation trace (primary / secondary peaks) ([2]; 1 μM): No valid peaks are detected

NCC(CC(=O)O)c1ccc(Cl)cc1 (stereo not shown) [baclofen]
spacing and amplitude regularity of primary peaks [1, 3]: irregular spacing and amplitude | frequency of primary peaks relative to control [1, 3]: significantly lower frequency than control | peaks detected in calcium oscillation trace (primary / secondary peaks) ([1]; 10 μM): Only primary peaks 118 are detected

CN(CCOc1ccc(NS(C)(=O)=O)cc1)CCc1ccc(NS(C)(=O)=O)cc1 [dofetilide]
spacing of primary peaks ([2]; 10 μM): irregular spacing

CCCCCCCN(CC)CCCC(O)c1ccc(NS(C)(=O)=O)cc1 (stereo not shown) [ibutilide]
primary peak prolongation ([2]; 1 μM): prolongated | peaks detected in calcium oscillation trace (primary / secondary peaks) ([2]; 1 μM): Primary peaks 118 and secondary peaks 150 are present

C=C(C)[C@H]1CN[C@H](C(=O)O)[C@H]1CC(=O)O [kainic acid]
frequency of primary peaks relative to control ([1]; 1 μM, after 30 minutes treatment): increased relative to control | peaks detected in calcium oscillation trace (primary / secondary peaks) ([1]; 1 μM): Primary peaks 118 and numerous secondary peaks 150 are detected

C=C[C@H]1C[N@@]2CC[C@H]1C[C@@H]2[C@@H](O)c1ccnc2ccc(OC)cc12 [quinidine]
primary peak prolongation ([2]; 10 μM): prolongated | spacing of primary peaks ([2]; 10 μM): irregular spacing | peaks detected in calcium oscillation trace (primary / secondary peaks) ([2]; 10 μM): Primary peaks 118 and secondary peaks 150 are detected

CC(C)NCC(O)c1ccc(NS(C)(=O)=O)cc1 (stereo not shown) [sotalol]
primary peak prolongation ([2]; 10 μM): prolongated | spacing of primary peaks ([2]; 10 μM): irregular spacing | peaks detected in calcium oscillation trace (primary / secondary peaks) ([2]; 10 μM): Primary peaks 118 and secondary peaks 150 are detected

CC(C)[C@@H]1NC(=O)[C@H](C)OC(=O)[C@@H](C(C)C)NC(=O)[C@@H](C(C)C)OC(=O)[C@H](C(C)C)NC(=O)[C@H](C)OC(=O)[C@@H](C(C)C)NC(=O)[C@@H](C(C)C)OC(=O)[C@H](C(C)C)NC(=O)[C@H](C)OC(=O)[C@@H](C(C)C)NC(=O)[C@@H](C(C)C)OC1=O [valinomycin]
amplitude and spacing regularity of primary peaks [1, 4]: much more variable | frequency of primary peaks relative to control [1, 4]: much less than control | peaks detected in calcium oscillation trace (primary / secondary peaks) ([1]; 0.3 μM): Primary peaks 118 and secondary peaks 150 are detected
